Columns and labels:
MKN45 = test: CellTiter-Glo cell proliferation inhibition, MKN45; format: cell-based; conditions: MKN-45; MKN45 (mouse B-cell lymphoma cell line), 72 hours; read-out: Example IC50 (µM) MKN45
Description: (§1) This experiment used the CellTiter-Glo® Luminescent Cell Viability Assay kit from Promega to evaluate the inhibitory activity of the disclosed compounds on the proliferation of the following cell lines: 4T1 (mouse breast cancer cell line), A20 (mouse B-cell lymphoma cell line), A2780 (human ovarian cancer cell line), AsPC-1 (pancreatic cancer cell line), B16F10 (mouse melanoma cell line), BT549 (human breast cancer cell line), CT26 (mouse colon cancer cell line), EMT6 (mouse breast cancer cell line), HCT116 (colorectal cancer cell line), Jurket (acute leukemia cell line), KP-4 (pancreatic cancer cell line), LL/2 (mouse lung cancer cell line), MCF7 (breast cancer cell line), […] NCI-H358 (lung cancer cell line), NCI-H727 (gastric cancer cell line), NCI-1944 (lung cancer cell line), Pan 04.03 (pancreatic cancer cell line), SK-BR-3 (breast cancer cell line), THP-1 (leukemia cell line), TOV21G (ovarian cancer cell line), U87MG (glioblastoma cell line), and UM-UC-a (bladder cancer cell line). […]
(§2) Cells were cultured according to the instructions provided by the cell supplier (Nanjing Kebai Biotechnology Co., Ltd.). […] Suspension or adherent cells were collected, and cell viability was determined using the trypan blue exclusion method, ensuring that cell viability was above 90%. […]

A2780 = test: CellTiter-Glo cell proliferation inhibition, A2780; format: cell-based; conditions: A2780 (human ovarian cancer cell line), 72 hours; read-out: Example IC50 (µM) A2780
Description: as §1, §2

B16F10 = test: CellTiter-Glo cell proliferation inhibition, B16F10; format: cell-based; conditions: B16-F10; B16F10 (mouse melanoma cell line), 72 hours; read-out: Example IC50 (µM) B16F10
Description: as §1, §2

NCI-H727 = test: CellTiter-Glo cell proliferation inhibition, NCI-H727; format: cell-based; conditions: Homo sapiens; […]; read-out: Example IC50 (µM) NCI-H727
Description: as §1, §2

AsPC-1 = test: CellTiter-Glo cell proliferation inhibition, AsPC-1; format: cell-based; conditions: Homo sapiens, ASPC1; AsPC-1 (pancreatic cancer cell line), 72 hours; read-out: Example IC50 (µM) AsPC-1
Description: as §1, §2

Jurket = test: CellTiter-Glo cell proliferation inhibition, Jurket; format: cell-based; conditions: Jurket (acute leukemia cell line), 72 hours; read-out: Example IC50 (µM) Jurket
Description: as §1, §2

[1] = J. Med. Chem. 2014, 57, 6594-6609; cited from earlier work

| Structure (SMILES) | IC50 (MKN45) | IC50 (A2780) | IC50 (B16F10) | IC50 (NCI-H727) | IC50 (AsPC-1) | IC50 (Jurket) | oral bioavailability [1] |
| --- | --- | --- | --- | --- | --- | --- | --- |
| O=C(Nc1ccc(-c2csc(CO)c2)cc1)C(=O)Nc1ccc(-c2cc3cc(F)c(-c4nnn[nH]4)cc3n2C2CCC2)cc1 [Example 1] | 0.326 µM | 0.128 µM | 0.142 µM | 0.225 µM | 0.121 µM | 0.165 µM |  |
| Cn1c(-c2cccc(NC(=O)C(=O)Nc3ccc(-c4ccsc4)cc3)c2)c(I)c2cc(C(=O)O)c(O)cc21 [Example 11a-1, reference compound] |  |  |  |  |  |  | 0.07% |
